Results taken from ChEMBL document CHEMBL4725309, “Potent, non-covalent reversible BTK inhibitors with 8-amino-imidazo[1,5-a]pyrazine core featuring 3-position bicyclic ring substitutes” (Bioorg Med Chem Lett, 2020).

Tests used:
[1] = target: T1, Tyrosine-protein kinase BTK (Homo sapiens, UniProt Q06187); assay: Inhibition of BTK in human PBMC assessed as reduction in cell surface CD69 expression preincubated for 1 hr followed by stimulation with goat anti-human IgM F(ab')2 for 18 hrs by immunostaining analysis; assay type: tissue-based
T1 sequence (Q06187 whole entry): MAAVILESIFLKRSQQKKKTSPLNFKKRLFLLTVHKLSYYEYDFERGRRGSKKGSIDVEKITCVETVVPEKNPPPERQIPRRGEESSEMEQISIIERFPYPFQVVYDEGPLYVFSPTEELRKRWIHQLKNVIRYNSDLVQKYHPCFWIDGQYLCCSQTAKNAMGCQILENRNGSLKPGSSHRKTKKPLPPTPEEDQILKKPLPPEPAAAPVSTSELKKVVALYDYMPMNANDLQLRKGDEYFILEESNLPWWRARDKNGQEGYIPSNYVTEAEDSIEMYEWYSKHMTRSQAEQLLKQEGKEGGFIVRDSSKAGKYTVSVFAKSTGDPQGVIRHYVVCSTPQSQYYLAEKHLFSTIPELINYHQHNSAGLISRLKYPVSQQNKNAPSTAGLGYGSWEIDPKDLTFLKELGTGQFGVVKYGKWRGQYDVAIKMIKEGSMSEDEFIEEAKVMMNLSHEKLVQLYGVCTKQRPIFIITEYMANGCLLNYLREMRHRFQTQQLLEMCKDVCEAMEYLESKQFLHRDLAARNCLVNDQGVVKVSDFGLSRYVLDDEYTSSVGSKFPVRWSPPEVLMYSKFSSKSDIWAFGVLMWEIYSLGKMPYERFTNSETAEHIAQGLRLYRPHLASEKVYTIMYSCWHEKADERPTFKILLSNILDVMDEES

[2] = target: T1, Tyrosine-protein kinase BTK; assay: Inhibition of recombinant full length BTK (unknown origin) expressed in baculovirus infected Sf9 cells using Biotin-EQEDEPEGDYFEWLE-NH2 peptide as substrate incubated for 60 mins followed by further incubation with substrate and ATP for 120 mins by TR-FRET assay
[3] = target: T1, Tyrosine-protein kinase BTK; assay: Inhibition of BTK in human whole blood assessed as reduction in cell surface CD69 expression preincubated for 1 hr followed by stimulation with anti-CD79b for 3 hrs by immunostaining analysis; assay type: tissue-based
[4] = Clearance in Wistar Han rat at 2 mg/kg, iv; assay type: ADME, organism-based; conditions: in vivo
[5] = Volume of distribution at steady state in Wistar Han rat at 2 mg/kg, iv; assay type: ADME, organism-based; conditions: in vivo, read-out: Vdss
[6] = AUC in Wistar Han rat at 2 mg/kg, iv; assay type: ADME, organism-based; parameters: dose 2 mg/kg; conditions: in vivo
[7] = Half life in Wistar Han rat at 2 mg/kg, iv; assay type: ADME, organism-based; conditions: in vivo
[8] = Cmax in Wistar Han rat at 5 mg/kg, po; assay type: ADME, organism-based; parameters: route oral, dose 5 mg/kg; conditions: in vivo
[9] = Tmax in Wistar Han rat at 5 mg/kg, po; assay type: ADME, organism-based; conditions: in vivo
[10] = Oral bioavailability in Wistar Han rat at 5 mg/kg; assay type: ADME, organism-based; conditions: Wistar Han, in vivo
[11] = AUC in Beagle dog at 1 mg/kg, iv; assay type: ADME, organism-based, Canis lupus familiaris; parameters: dose 1 mg/kg; conditions: in vivo

For Nc1nccn2c([C@@H]3CC[C@H]4CCC(=O)N4C3)nc(-c3ccc(C(=O)Nc4cc(C(F)(F)F)ccn4)cc3O)c12, which IC50 [1] is on record?
The IC50 was 11 nM.

With C[C@@H]1OC(=O)N2C[C@H](c3nc(-c4ccc(C(=O)Nc5cc(C(F)(F)F)ccn5)cc4)c4c(N)nccn34)CC[C@@H]12 as the compound, how does the IC50 [2] read?
Its IC50 is 0.13 nM.

What about the IC50 [1] of the same compound?
The IC50 was 4.9 nM.

And the IC50 [3]?
The IC50 was 86 nM.

With Nc1nccn2c([C@@H]3CC[C@H]4CCC(=O)N4C3)nc(-c3ccc(C(=O)Nc4cc(C(F)(F)F)ccn4)cc3OC(F)F)c12 as the compound, how does the IC50 [1] read?
The IC50 was 20 nM.

And the IC50 [3]?
Its IC50 is 415 nM.

With Nc1nccn2c([C@@H]3CC[C@H]4CCC(=O)N4C3)nc(-c3ccc(C(=O)Nc4cc(C(F)(F)F)ccn4)cc3C(F)(F)F)c12 as the compound, how does the IC50 [2] read?
The IC50 was over 1000 nM.

And the IC50 [1]?
Its IC50 is over 3000 nM.

Which clearance [4] does the source give for Nc1nccn2c([C@@H]3CC[C@H]4CCC(=O)N4C3)nc(-c3ccc(C(=O)Nc4cc(C(F)(F)F)ccn4)cc3OC3CC3)c12 here?
The clearance was 42 mL/min/kg.

What about the Vd [5] of the same compound?
Its Vd is 4.2 L/kg.

And the AUC [6]?
The AUC was 1.4 µM·h.

And the half-life [7]?
Its half-life is 2.3 h.

And the Cmax [8]?
Its Cmax is 140 nM.

And the Tmax [9]?
Its Tmax is 3.5 h.

What about the bioavailability [10] of the same compound?
Its bioavailability is 14%.

For Nc1nccn2c([C@@H]3CC[C@H]4CCC(=O)N4C3)nc(-c3ccc(C(=O)Nc4cc(C(F)(F)F)ccn4)cc3F)c12, which IC50 [1] is on record?
Its IC50 is 4 nM.

What about the IC50 [3] of the same compound?
Its IC50 is 101 nM.

With Nc1nccn2c([C@@H]3CC[C@H]4CCC(=O)N4C3)nc(-c3ccc(C(=O)Nc4cc(C(F)(F)F)ccn4)cc3OC(F)(F)F)c12 as the compound, how does the IC50 [2] read?
Its IC50 is 10 nM.

And the IC50 [1]?
Its IC50 is 74 nM.

With Nc1nccn2c([C@@H]3CC[C@H]4CCCN4C3)nc(-c3ccc(C(=O)Nc4cc(C(F)(F)F)ccn4)cc3)c12 as the compound, how does the IC50 [1] read?
Its IC50 is 39 nM.

And the IC50 [3]?
Its IC50 is 204 nM.

Which IC50 [1] does the source give for CN1C[C@@H]2CC[C@@H](c3nc(-c4ccc(C(=O)Nc5cc(C(F)(F)F)ccn5)cc4)c4c(N)nccn34)CN2C1=O here?
Its IC50 is 403 nM.

For Nc1nccn2c([C@@H]3CC[C@H]4CCCC(=O)N4C3)nc(-c3ccc(C(=O)Nc4cc(C(F)(F)F)ccn4)cc3F)c12, which IC50 [1] is on record?
Its IC50 is 39 nM.

With C[C@H]1CC[C@@H](c2nc(-c3ccc(C(=O)Nc4cc(C(F)(F)F)ccn4)cc3F)c3c(N)nccn23)CN1C(=O)C1CC1 as the compound, how does the AUC [6] read?
Its AUC is 3.1 µM·h.

And the AUC [11]?
Its AUC is 20 µM·h.

What does the source list for Nc1nccn2c([C@@H]3CC[C@H]4COCC(=O)N4C3)nc(-c3ccc(C(=O)Nc4cc(C(F)(F)F)ccn4)cc3F)c12?
IC50 [2]: 0.1 nM; IC50 [1]: 5.8 nM; IC50 [3]: 78 nM
